Laboratory results from article PMC6825221, “In silico re-engineering of a neurotransmitter to activate KCNQ potassium channels in an isoform-specific manner” (Communications Biology, 2019).

Legend:
KCNQ3* = KCNQ3* (Homo sapiens, UniProt O43525, A315T); assay: TEVC of homomeric KCNQ3* (A315T KCNQ3 mutant) expressed in Xenopus oocytes; format: cell-based
Excerpt: We next validated the in silico predictions using two-electrode voltage clamp of homomeric neuronal KCNQ2-5 channel isoforms expressed in Xenopus laevis oocytes. […] As in previous studies[8],[10], we used the A315T KCNQ3 mutant (KCNQ3*) that ensures large enough currents to accurately quantify voltage dependence and pharmacology of homomeric KCNQ3[16].
We generated cRNA transcripts encoding human KCNQ1, KCNQ2, KCNQ3, KCNQ4, KCNQ5 or GLRA1 (NM_001146040) (GenScript, Piscataway, NJ, USA) by in vitro transcription using the T7 polymerase mMessage mMachine kit (Thermo Fisher Scientific), after vector linearization, from cDNA sub-cloned into plasmids incorporating Xenopus laevis β-globin 5′ and 3′ UTRs flanking the coding region to enhance translation and cRNA stability. We quantified cRNA by spectrophotometry. We generated mutant KCNQ2 and KCNQ3 cDNAs by site-directed mutagenesis using a QuikChange kit (Stratagene, San Diego, CA) and prepared the corresponding cRNAs as above. We injected defolliculated stage V and VI Xenopus laevis oocytes (Ecocyte Bioscience, Austin, TX and Xenoocyte, Dexter, MI) with KCNQ channel α subunit (5-20 ng) or GLRA1 (20 ng) cRNAs. We incubated the oocytes at 16 °C in Barth’s saline solution (Ecocyte Bioscience) containing penicillin and streptomycin, with daily washing, for 2–5 days prior to two-electrode voltage-clamp (TEVC) recording.
We performed TEVC at room temperature using an OC-725C amplifier (Warner Instruments, Hamden, CT) and pClamp10 software (Molecular Devices, Sunnyvale, CA) 2–5 days after cRNA injection as described in the section above. For recording, oocytes were placed in a small-volume oocyte bath (Warner) and viewed them with a dissection microscope. Chemicals were sourced from Sigma, Matrix Scientific and Santa Cruz. […] All stock solutions were diluted in bath solution on the day of experiments. KCNQ2/3 channel activation was screened for using either 30 µM or 100 µM concentrations of each of the six compounds, then dose responses were conducted as appropriate. Bath solution was (in mM): 96 NaCl, 4 KCl, 1 MgCl2, 1 CaCl2, 10 HEPES (pH 7.6). Compounds were introduced into the oocyte recording bath by gravity perfusion at a constant flow of 1 ml per minute for 3 min prior to recording. Pipettes were of 1–2 MΩ resistance when filled with 3 M KCl. Currents were recorded in response to voltage pulses between −120 or −80 mV and + 40 mV at 20 mV intervals from a holding potential of −80 mV, to yield current-voltage relationships, current magnitude, and for quantifying activation rate. We analyzed data using Clampfit (Molecular Devices) and Graphpad Prism software (GraphPad, San Diego, CA, USA); values are stated as mean ± SEM. […]

KCNQ3*-R242A = target: T1, KCNQ3*-R242A (Homo sapiens, UniProt O43525, A315T/R242A); assay: TEVC of homomeric KCNQ3*-R242A; format: cell-based; settings: 100 µM
T1 sequence (O43525 1-872 R242A/A315T): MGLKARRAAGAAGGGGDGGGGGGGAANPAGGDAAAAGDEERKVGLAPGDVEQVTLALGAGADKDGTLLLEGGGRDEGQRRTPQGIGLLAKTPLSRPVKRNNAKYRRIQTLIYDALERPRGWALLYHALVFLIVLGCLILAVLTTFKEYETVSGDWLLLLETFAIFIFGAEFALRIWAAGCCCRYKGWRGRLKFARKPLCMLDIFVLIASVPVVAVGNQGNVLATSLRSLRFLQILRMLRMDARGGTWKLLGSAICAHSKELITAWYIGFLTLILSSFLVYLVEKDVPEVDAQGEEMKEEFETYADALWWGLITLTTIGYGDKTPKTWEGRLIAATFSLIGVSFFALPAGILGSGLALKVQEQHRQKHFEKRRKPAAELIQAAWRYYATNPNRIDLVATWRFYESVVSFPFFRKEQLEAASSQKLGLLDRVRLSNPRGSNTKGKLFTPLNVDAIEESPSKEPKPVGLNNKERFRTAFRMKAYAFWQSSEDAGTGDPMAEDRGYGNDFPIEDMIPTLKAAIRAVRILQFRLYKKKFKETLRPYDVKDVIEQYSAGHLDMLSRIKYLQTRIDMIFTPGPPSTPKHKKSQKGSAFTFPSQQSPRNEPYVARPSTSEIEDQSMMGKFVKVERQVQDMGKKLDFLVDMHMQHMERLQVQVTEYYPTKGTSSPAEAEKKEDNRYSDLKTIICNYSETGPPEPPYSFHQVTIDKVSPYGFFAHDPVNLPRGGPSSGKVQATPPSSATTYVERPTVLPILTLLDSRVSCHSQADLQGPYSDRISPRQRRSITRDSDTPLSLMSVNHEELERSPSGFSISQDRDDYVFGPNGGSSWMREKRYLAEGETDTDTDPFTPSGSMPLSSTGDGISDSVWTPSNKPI
Excerpt: We generated cRNA transcripts encoding human KCNQ1, KCNQ2, KCNQ3, KCNQ4, KCNQ5 or GLRA1 (NM_001146040) (GenScript, Piscataway, NJ, USA) by in vitro transcription using the T7 polymerase mMessage mMachine kit (Thermo Fisher Scientific), after vector linearization, from cDNA sub-cloned into plasmids incorporating Xenopus laevis β-globin 5′ and 3′ UTRs flanking the coding region to enhance translation and cRNA stability. We quantified cRNA by spectrophotometry. We generated mutant KCNQ2 and KCNQ3 cDNAs by site-directed mutagenesis using a QuikChange kit (Stratagene, San Diego, CA) and prepared the corresponding cRNAs as above. […]
We performed TEVC at room temperature using an OC-725C amplifier (Warner Instruments, Hamden, CT) and pClamp10 software (Molecular Devices, Sunnyvale, CA) 2–5 days after cRNA injection as described in the section above. […] Currents were recorded in response to voltage pulses between −120 or −80 mV and + 40 mV at 20 mV intervals from a holding potential of −80 mV, to yield current-voltage relationships, current magnitude, and for quantifying activation rate. We analyzed data using Clampfit (Molecular Devices) and Graphpad Prism software (GraphPad, San Diego, CA, USA); values are stated as mean ± SEM. […]

- EC50 (KCNQ3*; ΔV0.5act, read-out: EC50, KCNQ3* activation): 18 ± 12 nM
- effect on nonfunctional KCNQ3*-R242A (KCNQ3*-R242A): awakened neither by 3FMSG nor retigabine
Compound: CS(=O)(=O)N(CC(=O)O)c1cccc(F)c1 [3FMSG]
- KCNQ3* activation and deactivation rates (KCNQ3*; 100 µM): speeded activation and slowed deactivation
